Results as given in patent EP0334956A1, “HEMOLYSIS INHIBITOR AND MEDICAL RESIN COMPOSITION, MEDICAL IMPLEMENT, AND BLOOD-PRESERVING FLUID CONTAINING THE SAME” (KAO CORPORATION, priority 1986, dated 1988).
Structures can show the parent of a compound that is named as a salt. Where two headings read alike, the source gives them in different places.

Assays:
[1] = tested on: human concentrated red cells; experiment: Hemolysis of stored CRC, reagent added as Tween 80/physiological saline emulsion; plasma hemoglobin by TMB method; format: cell-based; details: for Hemoglobin concentration in plasma: Table 1, emulsion, 4°C, 4 weeks; for hemolysis depressing capacity (in words): summary of Tables 1 through 6 (emulsion and direct addition)
Method: Isopropyl isotridecyl maleate was added to a 2000ug/ml polyoxyethylene monooleate (reagent-grade product of Wako Junyaku K.K. marketed under trademark designation of "Tween 80")/physiological saline mixed solution in such an amount to be contained therein in a final concentration of 4mM. A 0.2ml aliquot of the resultant emulsion was added to a human concentrated red cells (hereinafter referred to as "CRC") adjusted in advance to a hematocrit value of about 70% so as to be contained therein in a final concentration indicated in Table 1. The resulting liquid was placed in a stoppered polypropylene tube and left standing at rest at 4°C for 4 weeks. At the end of this standing, it was tested for plasma hemoglobin concentration by the TMB method (Clin. Chem., 23, 749-(1977)).
An emulsion was prepared by following the procedure of Example 1, except that isopropyl decyl maleate was used in place of isopropyl-isotridecyl maleate. A CRC sample incorporating the emulsion was left standing and thereafter tested for plasma hemoglobin concentration.
Emulsions were prepared by following the procedure of Excample 1, except that di-2-ethylhexyl phthalate (Control 1) and diisopropyl maleate, a carboxylic ester compound deviating from the scope of the present invention (Control 2) were respectively used in place of isopropyl isotridecyl maleate. CRC samples severally incorporating the emulsions were left standing and, thereafter, tested for plasma hemoglobin concentration.
Glycerine-l-butyl-3-isostearyl ether was added to a 2000 ug/ml polyoxyethylene monooleate (regent-grade product of Wako Junyaku K.K. marketed under trademark designation of "Tween 80")/ physiological saline mixed solution so as to be contained therein in a final concentration of 4 mM. A 0.2ml aliquot of the resultant emulsion was added to CRC adjusted in advance to a hematocrit value of about 70% so as to be contained therein in a final concentration indicated in Table 3. The resultant liquid was placed in a stoppered polypropylene tube and left standing at 4°C for 4 weeks. Thereafter, it was tested for plasma hemoglobin concentration by following the procedure of Example 1.
An emulsion was prepared by following the procedure of Example 5, except that glycerine-1,3-dioctyl ether was used in place of glycerine- l-butyl-3-isostearyl ether. A CRC sample incorporating the resultant emulsion was left standing and, thereafter, tested for plasma hemoglobin concentration. Controls 7 and 8
Emulsions were prepared by following the procedure of Example 5, except that di-2-ethylhexyl phthalate (Control 7) and glycerine monooctyl ether, an ether compound deviating from the scope of the present invention, (Control 8) were respectively used in place of glycerine-l-butyl-3-isostearyl ether. CRC samples incorporating the emulsions were left standing and, thereafter, tested for plasma hemoglobin concentration.
Isopropyl isolaurate was dispersed in a 2000 ug/ml poloxyethylene monooleate (reagent-grade product of Wako Junyaku K.K. marketed under trademark designation of "Tween 80")/physiological saline mixed solution so as to be contained therein in a concentration of 4 mM. A 0.2-ml aliquot of the resultant emulsion was added to CRC adjusted in advance to a hematocrit value of about 70% so as to be contained therein in a final concentration indicated in Table 5. The resultant liquid was placed in a stoppered polypropylene tube and left standing at 4°C for 4 weeks. Thereafter, it was tested for plasma hemoglobin concentration by following the procedure of Example 1.
An emulsion was prepared by following the procedure of Example 9, except that 2-ethylhexyl isostearate was used in place of isopropyl isolaurate. A CRC sample incorporating the resultant emulsion was left standing and, thereafter, tested for plasma hemoglobin concentration.

[2] = tested on: CRC; experiment: Hemolysis of stored CRC, reagent added directly to CRC; plasma hemoglobin by TMB method; format: cell-based, human; parameters: unit not given here; details: Table 2, direct addition, 4°C, 4 weeks
Method: (§1) Isopropyl isotridecyl maleate was added to CRC adjusted in advance to a hematocrit value of about 70% so as to be contained threrein in a final concentration indicated in Table 2 and stirred gently. The resultant liquid was placed in a stoppered polypropylene tube and left standing at rest at 4°C for 4 weeks, while subjecting to gentle stirring per a week. Thereafter, it was tested for plasma hemoglobin concentration by following the procedure of Example 1.
By following the procedrue of Example 3, isopropyl decyl maleate was added to CRC in the place of isopropyl isotridecyl maleate. The resultant liquid was left standing and, thereafter, tested for plasma hemoglobin concentration.
CRC samples were obtained by following the procedure of Example 3, except that di-2-ethylhexyl phthalate (Control 4) and diisopropyl maleate, a carboxylic ester compound deviating from the scope of this invention, (Control 5) were respectively used in place of isopropyl isotridecyl maleate. The resultant liquids were left standing and, thereafter, tested for plasma hemoglobin concentration.
as §1, with “Glycerine-l-butyl-isostearyl ether” for “Isopropyl isotridecyl maleate”, “therein” for “threrein”, “4” for “2”, “standing” for “standing at rest”
A CRC sample was prepared by following the procedure of Example 7, except that glycerine-1,3-dioctyl ether was used in place of glycerine-1-butyl 3-isostearyl ether. The resultant liquid was left standing and, thereafter, tested for plasma hemoglobin concentration.
Emulsions were prepared by following the procedure of Example 7, excepting di-2-ethylhexyl phthalate (Control 10) and glycerine monooctyl ether, an ether compound deviating from the scope of the present invention, (Control 11) were respectively used in the place of glycerine-l-butyl-3-isostearyl ether. CRC samples incorporating the emulsions were left standing and, thereafter, tested for plasma hemoglobin concetnration.
as §1, with “Isopropyl isolaurate” for “Isopropyl isotridecyl maleate”, “contained therein” for “contained threrein”, “Table 4” for “Table 2”, “was place” for “was placed”, “standing” for “standing at rest”, “stirring par” for “stirring per”
An emulsion was prepared by following the procedrue of Example 11, except that 2-ethylhexyl isostearate was used in place of isopropyl isolaurate. A CRC sample incorporating the resultant emulsion was left standing and, thereafter, tested for plasma hemoglobin concentration.
Emulsions were prepared by following the procedure of Example 11, except that di-2-ethylhexyl phthalate (Control 16) and ethyl-2-ethylhexanoate, a monocarboxylic ester compound deviating from the scope of the present invention, (Control 17) were respectively used in place of isopropyl isolaurate. CRC samples incorporating the resultant emulsions therein were left standing and, thereafter, tested for plasma hemoglobin concentraiton.

[3] = tested on: concentrated human red cells; experiment: Hemolysis of CRC stored with blood preserving liquid (SAG solution/Tween 80 emulsion); format: cell-based; details: 4°C, 5 weeks
Method: An emulsion was produced by dissolving Tween 80 (reagent grade produced by Wako Junyaku K.K.) in a SAG solution (containing 140 mM of NaCl, 1.25 mM of adenine and 50 mM of glucose) so as to be contained therein in a concentration of 600 µg/ml adding 12 mM isopropyl isotridecyl maleate to the resultant solution, and stirring the resultant mixture for uniform dispersion. In a stoppered polypropylene tube, a mixture of 1.0 ml of the emulsion prepared as described above and 2.0 ml of a liquid of concentrated human red cells adjusted in advance to a hematocrit value of about 70% was left standing at 4°C for 5 weeks. The resultant liquid was tested for free hemoglobin concentration in plasma by following the procedure of Example 1.
An emulsion was prepared by dissolving Tween 80 (reagent grade product of Wako Junyaku K.K.) in a SAG liquid so as to be contained therein in a concentration of 600 µg/ml, adding 12 mM of glycerine-l-butyl-3-isostearyl ether and stirring the resultant mixture for 'uniform dispersion. In a stoppered polypropylene tube, a mixture of 1.0 ml of the emulsion prepared as described above and 2.0 ml of CRC adjusted in advance to a hematocrit value of about 70% was left stnading at 4°C for 5 weeks. At the end of this standing, the CRC liqud was tested for change of free hemoglobin concentration in plasma by following the procedure of Example 1.
An emulsion was prepared by dissolving Tween 80 (reagent grade product of Wako Junyaku K.K.) in a SAG liquid so as to be contained therein in a concentration of 600 ug/ml, adding 12 mM of isopropyl isolaurate to the resultant solution, and stirring the resultant mixture for uniform dispersion. In a stoppered polypropylene tube, a mixture of 1.0 ml of the emulsion prepared as described above and 2.0 ml of CRC adjusted in advance to a hematocrit value of about 70% and then left standing at 4°C for 5 weeks. At the end of the satnding, the liquid was tested for free hemoglobin concentraiton in plasma by following the procedure of Example 1. The results are shown in Talbe 24.

[4] = tested on: human platelet rich plasma; experiment: Platelet aggregation in platelet rich plasma (Aggrecoder); format: cell-based; details: 40 mM methanol solution added in 1/100, room temperature 2 hours, relative to blank; for Ratio of platelet aggregation: 400 µM; for activity at 400 µM: Homo sapiens, Platelet, 2 h, read-out: Ratio of platelet aggregation
Method: A 40 mM methanol solution of isopropyl isotridecyl maleate (Example 13), a 40 mM methanol solution of glycerine-l-butyl-3-isostearyl ether (Example 14), a 40 mM methanol solution of isopropyl isolaurate (Example 15), a 40 mM methanol solution of di-2-ethylhexyl phthalate (Control 19) and methanol containing no added compound (Control 20) were severally added to a human platelet rich plasma (count of platelets about 300,000/mm ) in a fixed amount of 1/100, left standing at room temperature for 2 hours, and tested for platelet aggregation by the use of an instrument (product of Kyoto Daiichikagaku K.K. marketed under "Aggrecoder").
The percentage of transmittance of light through the solution of platelet rich plasma containing a given sample to the maximum transmittance of light through the same solution of platelet rich plasma not containing the sample (blank) was reported as the ratio of aggregation of the sample. As aggregation inducers, 5 µM ADP (adenosine diphosphoric acid) and 5 ug/ml collagen were used.

[5] = aggregation inducer 5 µg/ml collagen

CC(C)OC(=O)/C=C\C(=O)OC(C)C [Diisopropyl maleate, reference compound]
Hemoglobin concentration in plasma ([1]; final concentration 0.4 mM): 124 Mg/ml | Hemoglobin concentration in plasma ([1]; final concentration 4.0 mM): 138 Mg/ml | hemolysis depressing capacity (in words) [1]: possessed virtually no ability to prevent hemolysis or conversely caused hemolysis | Hemoglobin concentration in plasma ([2]; final concentration 0.4 mM): 135 | Hemoglobin concentration in plasma ([2]; final concentration 4.0 mM): 160

CCCCC(CC)C(=O)OCC (stereo not shown) [Ethyl-2-ethylhexanoate, reference compound]
hemolysis depressing capacity (in words) [1]: possessed virtually no ability to prevent hemolysis or conversely caused hemolysis

CCCCCCCCOCC(O)CO (stereo not shown) [Glycerine monooctyl ether, reference compound]
hemolysis depressing capacity (in words) [1]: possessed virtually no ability to prevent hemolysis or conversely caused hemolysis

CCCCCCCCCCOC(=O)/C=C\C(=O)OC(C)C [Isopropyl decyl maleate]
Hemoglobin concentration in plasma ([1]; final concentration 0.4 mM): 41 Mg/ml | Hemoglobin concentration in plasma ([1]; final concentration 4.0 mM): 43 Mg/ml | Hemoglobin concentration in plasma ([2]; final concentration 0.4 mM): 95 | Hemoglobin concentration in plasma ([2]; final concentration 4.0 mM): 99

CC(C)CCCCCCCCC(=O)OC(C)C [Isopropyl isolaurate]
Concentration of Free Hemoglobin in Plasma ([3]; Table 24, final concentration of the additive in CRC 0.4 mM): 86 mg/dL | Concentration of Free Hemoglobin in Plasma ([3]; Table 24, final concentration of the additive in CRC 4.0 mM): 230 mg/dL | Ratio of platelet aggregation ([4]; aggregation inducer 5 µM ADP): 99.3% | Ratio of platelet aggregation [4, 5]: 101.6%

CC(C)CCCCCCCCCCOC(=O)/C=C\C(=O)OC(C)C [Isopropyl isotridecyl maleate]
Hemoglobin concentration in plasma ([1]; final concentration 0.4 mM): 35 Mg/ml | Hemoglobin concentration in plasma ([1]; final concentration 4.0 mM): 33 Mg/ml | Hemoglobin concentration in plasma ([2]; final concentration 0.4 mM): 90 | Hemoglobin concentration in plasma ([2]; final concentration 4.0 mM): 95 | activity at 400 µM ([4]; aggregation inducer 5 µM ADP): 94.3% | activity at 400 µM [4, 5]: 94.5%

Glycerine-1-butyl-3-isostearyl ether
Concentration of Free Hemoglobin in Plasma ([3]; Table 23, final concentration of the additive in CRC 0.4 mM): 71 mg/dL | Concentration of Free Hemoglobin in Plasma ([3]; Table 23, final concentration of the additive in CRC 4.0 mM): 102 mg/dL | Ratio of platelet aggregation ([4]; aggregation inducer 5 µM ADP): 101.0% | Ratio of platelet aggregation [4, 5]: 103.1%
